US20240190872A1, “FABI INHIBITORS FOR GRAM-NEGATIVE PATHOGENS” (THE BOARD OF TRUSTEES OF THE UNIVERSITY OF ILLINOIS, priority 2021, published 2024)
≈ marks a conversion by molar mass, not a printed value. Where two headings read alike, the source gives them in different places.

Legend:
E. coli ΔtolC (JW5503) = format: cell-based; conditions: efflux deficient E. coli ΔtolC
Procedure, shortened: (§1)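 MICs by CLSI broth microdilution in cation-adjusted Mueller-Hinton broth, performed in biological triplicate. Strains: efflux-deficient E. coli ΔtolC (JW5503, KEIO collection) and K. pneumoniae BAA-2472 (ATCC).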

E. coli MG1655 = assay: Antimicrobial susceptibility test (MIC); format: cell-based; conditions: Escherichia coli, MG1655
Procedure, shortened: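 CLSI micro-dilution broth method in cation-adjusted Mueller-Hinton broth, in biological triplicate; human serum (pooled, filtered) was also used.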

K. pneumoniae BAA 2472 = assay: microbe, parasite or virus in culture; format: cell-based; conditions: Klebsiella pneumoniae, BAA2472, read-out: MIC K. pneumoniae BAA 2472, clinical isolate
Procedure, shortened: as §1

[1] = system: 100 A. baumannii clinical isolates; assay: MIC90 against 100 A. baumannii clinical isolates; format: cell-based; conditions: Acinetobacter baumannii
Procedure: Antimicrobial susceptibility tests. Susceptibility testing was performed in biological triplicate, using the micro-dilution broth method as outlined by the Clinical and Laboratory Standards Institute. Bacteria were cultured with cation-adjusted Muller-Hinton broth (Sigma-Aldrich, Cat# 90922) in round-bottom 96-well plates (Corning, Cat# 3788). Human serum (pooled gender, 0.2 μm filtered) was purchased from BioIVT (Hicksville, NY).

[2] = system: E. coli MG1655 FabI mutant; assay: MIC against fabimycin-resistant E. coli MG1655 colonies (FabI mutants); format: cell-based; conditions: Escherichia coli
Procedure: Selection of resistant mutants. Resistant mutants were selected via the large inoculum method. Briefly, E. coli MG1655 (1.8×10^9 CFU) were plated on 100 mm plates of LB agar containing 64, 32, and 16 μg/mL Debio-1452-NH3. […] Resistant colonies were confirmed by streaking on selective media with the same concentration of Debio-1452-NH3.

Hepatocyte stability = format: in vitro ADME
E. coli AR-55 = assay: Murine urinary tract infection (UTI) model; format: in vivo, C3H/HeJ mice; conditions: TID
Procedure: FIG. 4. In-vivo efficacy of fabimycin in a murine UTI. After inducing diuresis, infection initiated in C3H/HeJ mice (8 per arm, 1.38×10^9 CFU/mouse transurethral) with E. coli AR-55 and treated with fabimycin at varying concentrations three times daily with bacterial enumeration at 168 h post-infection. Percentage in parenthesis indicates the percentage of animals with bacterial counts below the limit of detection (LOD).
UTIs represent one of the biggest risks for healthy individuals in terms of exposure to antibiotic-resistant bacteria and many individuals contract one in their lifetime (roughly 1 in 2 women and 1 in 10 men); as such, these infections from Gram-negative pathogens, particularly those that are drug-resistant, remain a major clinical challenge. As E. coli is the causative agent in the great majority of UTIs fabimycin was evaluated in a murine UTI model with a challenging, extensively resistant strain of carbapenem resistant E. coli (fabimycin MIC=2 μg/mL). When dosed at 33.3 mg/kg, TID fabimycin was able to achieve 3.0, 2.8, 2.9, and 1.9 log10 reductions in bacterial load relative to the vehicle in the spleen, bladder, liver, and kidneys tissues, respectively (FIG. 4).
Chart 1. Summary of Fabimycin in vivo models. Log reductions are relative to the vehicle. • S. aureus • Neutropenic thigh infection w/S. aureus USA300 LAC • 5 mg/kg, r.o. • 26 h, 2.6 log reduction • A. baumannii • Neutropenic thigh infection w/A. baumannii AR-0299 • 50 mg/kg, intramuscular (2, 6, and 11 h post-infection) • 26 h, 2.3 log reduction • Acute lung infection w/A. baumannii AR-0299 • 50 mg/kg, intramuscular (QD) • 48 h, 3.9 log reduction • Neutropenic thigh infection w/A. baumannii AR-0088 • 75 mg/kg IV, QID • 26 h, 1.75 log reduction • E. coli • Urinary tract infection w/E. coli AR-0055 • 33.3 mg/kg IV, TID (100 mg/kg a day) • 168 h post-infection • Bladder—2.78 log reduction • Liver—2.85 log reduction • Spleen—3.04 log reduction • Kidneys—1.85 log reduction • Urine—2.32 log reduction

in vitro [3] = conditions: mouse, plasma, Plasma stability, t1/2, Mouse
in vitro [4] = conditions: human, plasma
CYP 1A2 = CYP 1A2 (Homo sapiens (Human), UniProt P05177); assay: CYP inhibition
Chain of CYP 1A2 (P05177 whole entry): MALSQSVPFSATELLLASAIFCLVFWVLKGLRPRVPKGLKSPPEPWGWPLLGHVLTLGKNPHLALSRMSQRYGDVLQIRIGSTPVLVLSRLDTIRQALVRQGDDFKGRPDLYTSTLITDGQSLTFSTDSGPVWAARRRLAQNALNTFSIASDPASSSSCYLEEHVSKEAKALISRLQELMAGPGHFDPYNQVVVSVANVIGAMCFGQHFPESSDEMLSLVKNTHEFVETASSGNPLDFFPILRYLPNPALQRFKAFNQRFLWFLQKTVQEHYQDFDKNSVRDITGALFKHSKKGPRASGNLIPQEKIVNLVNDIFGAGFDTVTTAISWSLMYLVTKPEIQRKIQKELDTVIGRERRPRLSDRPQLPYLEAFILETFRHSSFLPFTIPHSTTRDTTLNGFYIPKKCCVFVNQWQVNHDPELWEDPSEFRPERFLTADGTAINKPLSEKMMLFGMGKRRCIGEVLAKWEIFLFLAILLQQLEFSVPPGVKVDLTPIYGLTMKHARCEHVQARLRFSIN

[5] = 33.3 mg/kg IV, 168 h post-infection

Cc1c(CN(C)C(=O)/C=C/c2cnc3c(c2)CC[C@H](N)C(=O)N3)oc2ccccc12 [(S)-11, (S,E)-3-(7-amino-8-oxo-6,7,8,9-tetrahydro-5H-pyrido[2,3-b]azepin-3-yl)-N-methyl-N-((3-methylbenzofuran-2-yl)methyl)acrylamide]
MIC E. coli ΔtolC (E. coli ΔtolC (JW5503)): 0.016 µg/mL (≈ 0.0396 µM) | MIC (E. coli MG1655): 2 µg/mL (≈ 4.94 µM) | MIC (K. pneumoniae BAA 2472): 4 µg/mL (≈ 9.89 µM) | MIC90 [1]: 8 µg/mL (≈ 19.8 µM) | MIC ([2]; MG1655, read-out: MIC, FabI mutant G148A): 64 to 128 µg/mL (≈ 158 to 316 µM) | MIC ([2]; MG1655, read-out: MIC, FabI mutant H209P): 61 to 128 µg/mL (≈ 151 to 316 µM) | Hepatocyte stability, Rat (Hepatocyte stability): 0.9 μL/min/million cells | log reduction relative to the vehicle, Bladder (E. coli AR-55; [5]): 2.78 log | log reduction relative to the vehicle, Kidneys (E. coli AR-55; [5]): 1.85 log | log reduction relative to the vehicle, Liver (E. coli AR-55; [5]): 2.85 log | log reduction relative to the vehicle, Spleen (E. coli AR-55; [5]): 3.04 log | log reduction relative to the vehicle, Urine (E. coli AR-55; [5]): 2.32 log | log10 reduction in bacterial load relative to the vehicle, bladder (E. coli AR-55; 33.3 mg/kg): 2.8 log10 | log10 reduction in bacterial load relative to the vehicle, kidneys (E. coli AR-55; 33.3 mg/kg): 1.9 log10 | log10 reduction in bacterial load relative to the vehicle, liver (E. coli AR-55; 33.3 mg/kg): 2.9 log10 | log10 reduction in bacterial load relative to the vehicle, spleen (E. coli AR-55; 33.3 mg/kg): 3.0 log10 | Plasma stability, t1/2, Mouse: 1.38 h | half-life (in vitro [3]): 1.38 h | half-life (in vitro [4]): 23.3 h | IC50 (CYP 1A2): 31 µM | stability in mouse plasma (in words) (Plasma stability): considerable instability | Plasma protein binding, Human (Plasma protein binding; Human): 94% | fraction unbound (Plasma protein binding; human, plasma): 0.06
